Reference: patent publication US6949648B2, “Condensed pyrazole derivatives, process for producing the same and use thereof” (Takeda Pharmaceutical Company Limited, priority 2000, dated 2005)

Legend:
human COX-1 = molecular target: T1, human COX-1 (Homo sapiens, UniProt P23219); assay: Determination of COX-1 inhibitory activity (microsome fraction, chemiluminescence); type: biochemical; conditions: microsome fraction 40 μg, arachidonic acid, 37° C. 25 minutes preincubation; read-out: Repression rate IC50 (μM) COX-1
T1 construct: made in house; host or cells: Sf-21 insect cells (recombinant baculovirus BAC-COX1, pFASTBAC1); microsome fraction
T1 sequence (P23219 24-599): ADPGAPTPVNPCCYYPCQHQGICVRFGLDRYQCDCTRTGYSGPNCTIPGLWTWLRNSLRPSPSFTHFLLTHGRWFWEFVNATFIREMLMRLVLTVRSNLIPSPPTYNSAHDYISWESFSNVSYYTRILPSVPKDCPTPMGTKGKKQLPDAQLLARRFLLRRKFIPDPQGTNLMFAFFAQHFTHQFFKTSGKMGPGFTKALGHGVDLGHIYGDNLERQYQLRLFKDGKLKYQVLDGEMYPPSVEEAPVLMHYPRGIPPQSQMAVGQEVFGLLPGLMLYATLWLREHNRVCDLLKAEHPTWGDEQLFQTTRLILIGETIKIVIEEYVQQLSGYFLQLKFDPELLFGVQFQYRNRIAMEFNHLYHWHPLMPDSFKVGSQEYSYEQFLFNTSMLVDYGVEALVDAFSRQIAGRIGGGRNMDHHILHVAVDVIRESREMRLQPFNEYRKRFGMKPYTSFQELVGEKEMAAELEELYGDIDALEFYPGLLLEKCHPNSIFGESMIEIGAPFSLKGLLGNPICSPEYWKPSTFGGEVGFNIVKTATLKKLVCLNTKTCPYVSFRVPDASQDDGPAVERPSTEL
Protocol: A 1.8 kb DNA fragment containing human COX-1 cDNA (FASEB J., vol. 5 (9), p. 2304-2312 (1991)) prepared by the PCR method was inserted into plasmid pFASTBAC1 (CIBCOBRL) to obtain a plasmid pFBCOX1.
Using the plasmid pFBCOX1 and BAC-TO-BAC Baculovirus Expression System (GIBCOBRL), a virus stock BAC-COX1 of the recombinant baculovirus was prepared.
Sf-21 cells were inoculated in 125 mL of Sf-900 II SFM medium (GIBCOBRL) at a concentration of 1×10^6 cells/mL, and the medium was incubated at 27° C. for 24 hours. 0.75 mL of the virus stock BAC-COX1 of the recombinant baculovirus was added thereto, and the mixture was incubated further for 72 hours. The cells were separated from the medium by centrifugation (3000 rpm, 10 min), and washed with PBS twice. The cells were suspended in 10 mL of a Lysis buffer (0.1M Tris-HCl (pH 7.4), 5 mM EDTA), and were treated with a homogenizer (POLYTRON) three times at 20000 rpm for 20 seconds so that the cells were crushed. The supernatant obtained after centrifugation (2000 rpm, 10 minutes) was further centrifuged (40000 rpm, 45 minutes) to give a precipitate, which was resuspended in a Lysis buffer (0.1M Tris-HCl (pH 7.4), 5 mM EDTA), and the suspension was stored at −80° C.
(§1) Determination of COX-1 and COX-2 Inhibitory Activities
(§2) To a mixture of 20 μL of a reaction buffer previously concentrated 10 times (1M Tris-HCl (pH8.0), 50 mM EDTA, 1.0% Tween 20, 50 mM luminol, 100 μM hematin), 20 μL of the microsome fractions (COX-1: 40 μg, COX-2: 20 μg), and 55 μL of distilled water, a sample compound dissolved in DMF (5 μL) was added, and the mixture was left at 37° C. for 25 minutes. The reaction was started by the addition of 20 μM arachidonic acid (100 μL), and chemiluminescence amount during the 10-second period after the addition of arachidonic acid was determined by the use of Lumistar (BMG Lab technologies, GmbH). The inhibition rate was calculated, regarding that the enzyme activity when DMF ([…]) was added was 100%, and the enzyme activity when 4 mM flurbiprofen (5 μL) was added was 0%.

human COX-2 = molecular target: T2, human COX-2 (Homo sapiens, UniProt P35354); assay: Determination of COX-2 inhibitory activity (microsome fraction, chemiluminescence); type: biochemical; conditions: microsome fraction 20 μg, arachidonic acid, 37° C. 25 minutes preincubation; read-out: Repression rate IC50 (μM) COX-2
T2 construct: made in house; host or cells: Sf-21 insect cells (recombinant baculovirus BAC-COX2, pFASTBAC1); microsome fraction
T2 sequence (P35354 18-604): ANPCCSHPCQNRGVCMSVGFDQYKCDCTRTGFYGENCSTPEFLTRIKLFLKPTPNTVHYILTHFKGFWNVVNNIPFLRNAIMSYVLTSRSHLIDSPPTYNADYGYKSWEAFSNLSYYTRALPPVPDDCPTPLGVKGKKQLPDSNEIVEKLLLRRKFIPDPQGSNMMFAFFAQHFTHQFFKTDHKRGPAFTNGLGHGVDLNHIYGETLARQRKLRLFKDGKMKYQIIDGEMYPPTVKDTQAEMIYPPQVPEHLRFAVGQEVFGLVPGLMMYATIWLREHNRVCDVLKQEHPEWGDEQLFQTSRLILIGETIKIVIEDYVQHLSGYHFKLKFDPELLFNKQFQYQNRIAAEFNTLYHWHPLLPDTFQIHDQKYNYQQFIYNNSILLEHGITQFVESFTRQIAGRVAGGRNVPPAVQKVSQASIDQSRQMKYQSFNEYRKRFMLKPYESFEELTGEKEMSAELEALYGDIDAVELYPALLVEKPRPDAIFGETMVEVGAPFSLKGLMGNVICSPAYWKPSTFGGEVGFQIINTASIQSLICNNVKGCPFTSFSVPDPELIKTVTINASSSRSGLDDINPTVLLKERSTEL
Protocol: A 1.8 kb DNA fragment containing human COX-2 cDNA (Proc. Natl. Acad. Sci. U.S.A., vol. 89 (16), p. 7384-7388 (1992)) prepared by the PCR method was inserted into plasmid pFASTBAC1 (CIBCOBRAL) to obtain a plasmid pFBCOX2.
Using the plasmid pFBCOX2 and BAC-TO-BAC Baculovirus Expression System (GIBCOBRAL), a virus stock BAC-COX2 of the recombinant baculovirus was prepared.
Sf-21 cells were inoculated in 125 mL of LSf-900 II SFM medium (GIBCOBRAL) at a concentration of 1×10^6 cells/mL, and the medium was incubated at 27° C. for 24 hours. 0.75 mL of the virus stock BAC-COX2 of the recombinant baculovirus was added thereto, and was incubated further for 72 hours. The cells were separated from the medium by centrifugation (3000 rpm, 10 min), and washed with PBS twice. The cells were suspended in 10 mL of a Lysis buffer (0.1M Tris-HCl (pH 7.4), 5 mM EDTA), and were treated with a homogenizer (POLYTRON), three times at 20000 rpm for 20 seconds so that the cells were crushed. The supernatant thus obtained after centrifugation (2000 rpm, 10 minutes) was further centrifuged (40000 rpm, 45 minutes) to obtain a precipitate, which was resuspended in a Lysis buffer (0.1M Tris-HCl (pH 7.4), 5 mM EDTA), and the suspension was stored at −80° C.
as §1, §2

[1] = test system: acetic acid induced rising and stretching; assay: Analgesic activity, acetic acid rising method; type: in vivo, ICR-mice; conditions: po, 20 min; 10 mg/kg orally, 30 minutes before 0.6% acetic acid i.p.; number of rising and stretching in 20 minutes; read-out: Repression rate (%) Dosage 10 mg/kg
In short: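 Male ICR mice (5 weeks, n=10/group) dosed orally; 30 min later injected i.p. with 0.6% acetic acid. Rising and stretching counted over 20 min; repression rate (%) from group mean counts versus controls.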

Row | Compound | IC50 (human COX-1) | IC50 (human COX-2) | inhibition in vivo at 10 mg/kg [1]
1 | CCCOc1c2ccccc2nc2c1c(C)nn2-c1ccccn1 [Example 2-17, 3-Methyl-4-propoxy-1-(2-pyridinyl)-1H-pyrazolo[3,4-b]quinoline] | 7.28 µM | 49.2 µM | 49%
2 | O=c1c2ccccc2[nH]c2c1cnn2-c1ccccn1 [Example 2-159, 1-(2-Pyridinyl)-1,9-dihydro-4H-pyrazolo[3,4-b]quinolin-4-one] | 2.66 µM | 1.37 µM | 69%
3 | Cc1nn(-c2ccccn2)c2nc3ccccc3c(OC3CCCC3)c12 [Example 2-21, 4-Cyclopentyloxy-3-methyl-1-(2-pyridinyl)-1H-pyrazolo[3,4-b]quinoline] | 4.21 µM | 86 µM | 56%
4 | Cc1nn(-c2ccccn2)c2[nH]c3cccc(F)c3c(=O)c12.Cl [Example 2-79, 5-Fluoro-3-methyl-1-(2-pyridinyl)-1,9-dihydro-4H-pyrazolo[3,4-b]quinolin-4-one hydrochloride] | 7.8 µM | 3.7 µM | 38%
5 | CCCNc1c2ccccc2nc2c1c(C)nn2-c1ccccn1 [Example 2-6, N-[3-Methyl-1-(2-pyridinyl)-1H-pyrazolo[3,4-b]quinolin-4-yl]-N-propylamine] | 21.7 µM | 65.1 µM | 57%
